Measurements reported in patent US20040224313A1, “Polymorphisms in the human cyp2b6 gene and their use in diagnostic and therapeutic applications” (priority 2000, published 2004).
Substitutions are numbered along the chain they refer to.

Tests used:
[1] = target: T1, CYP2B6 (Homo sapiens, UniProt P20813, R487C); details: human liver microsomes, homozygous carriers of R487C (C1459T)
T1 sequence (P20813 1-491 R487C): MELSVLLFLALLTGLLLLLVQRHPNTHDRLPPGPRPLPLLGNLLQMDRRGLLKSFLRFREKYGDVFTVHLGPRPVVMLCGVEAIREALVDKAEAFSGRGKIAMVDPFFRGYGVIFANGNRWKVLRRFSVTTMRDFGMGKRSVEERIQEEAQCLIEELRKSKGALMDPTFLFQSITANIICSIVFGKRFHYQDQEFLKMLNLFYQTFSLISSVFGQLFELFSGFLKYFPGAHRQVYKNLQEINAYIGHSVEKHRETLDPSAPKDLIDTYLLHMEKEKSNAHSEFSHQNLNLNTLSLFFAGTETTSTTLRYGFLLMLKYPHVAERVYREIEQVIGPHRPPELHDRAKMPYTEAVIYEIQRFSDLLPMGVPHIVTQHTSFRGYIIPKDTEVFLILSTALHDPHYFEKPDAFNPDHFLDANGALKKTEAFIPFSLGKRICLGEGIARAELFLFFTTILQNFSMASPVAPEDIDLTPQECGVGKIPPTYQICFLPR
Procedure: (§1) FIG. 4: Analysis of CYP2B6 protein expression (A) and enzymatic function (B). CYP2B6 protein was determined by immunoblotting and the S-mephenytoin N-demethylation to Nirvanol was measured in 92 liver microsome samples. The 5 nonsynonymous CYP2B6 mutations were determined in DNA from the same 92 individuals. Wt indicates the group of 30 individuals with homozygous wild-type genotype; 487 R/C and 487 C/C show the results for individuals heterozygous or homozygous for the exon 9 mutation, respectively. All other mutant genotypes are collectively shown. The average expression and activity of each group is shown as horizontal line. Statistical significance was evaluated by the t-test in comparison to the Wt group: * P<0.05; ** P<0.01.
(§2) The functional significance of the mutations in the CYP2B6 gene (Table 2) was investigated by analyzing expression and enzymatic activity of CYP2B6 in a large human liver bank. A specific monoclonal antibody, MAB-2B6 (Gentest Corp., Woburn, Mass., USA) was used to immunoquantitate microsomal CYP2B6. S-mephenytoin N-demethylation to Nirvanol was measured as a rather CYP2B6-specific pathway. The five nonsynonymous mutations were determined in all samples.

[2] = target: T2, CYP2B6 (Homo sapiens, UniProt P20813); details: human liver microsomes, homozygous wild-type (Wt) group
T2 sequence (P20813 1-491): T1 sequence (P20813 1-491 R487C) with C487R
Procedure: as §1, §2

[3] = test system: CYP2B6; details: human liver microsomes, heterozygous carriers of R487C (C1459T)
Procedure: as §1, §2

For `CC[C@@]1(c2ccccc2)NC(=O)N(C)C1=O` [S-mephenytoin], the “mean enzyme activity, S-mephenytoin N-demethylation” value (“mean enzyme activity” below) [1] was 22.2±8.4 pmoles of nirvanol formed/min*mg, the “mean enzyme activity” value [2] was 49.2±49.4 pmoles of nirvanol formed/min*mg and the “mean enzyme activity” value [3] was 25.9±15.2 pmoles of nirvanol formed/min*mg.
